The assay deals with T1, human PAR4 (Homo sapiens, UniProt Q96RI0).
T1 construct: expressed in transfected cells; host or cells: HEK293 PAR4 Clone 1.2A (BMS Arctic ID 383940)
T1 sequence (Q96RI0 18-385): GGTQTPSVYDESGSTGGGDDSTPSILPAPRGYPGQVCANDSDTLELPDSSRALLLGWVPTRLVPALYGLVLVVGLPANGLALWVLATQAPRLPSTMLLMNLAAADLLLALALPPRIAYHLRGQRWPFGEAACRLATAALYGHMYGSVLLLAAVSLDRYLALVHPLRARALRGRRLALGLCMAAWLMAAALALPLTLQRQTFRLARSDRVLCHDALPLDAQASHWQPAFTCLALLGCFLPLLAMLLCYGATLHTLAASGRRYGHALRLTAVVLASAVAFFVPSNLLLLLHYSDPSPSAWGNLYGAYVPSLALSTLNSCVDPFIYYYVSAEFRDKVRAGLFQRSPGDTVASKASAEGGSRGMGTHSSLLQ
The experiment in a line: PAR4 FLIPR assay: antagonism of agonist-peptide-induced calcium mobilization in PAR4-expressing HEK293 cells. In kind it is cell-based. Conditions: H-Ala-Phe(4-F)-[…]NH2-induced intracellular calcium mobilization, 11-point curves. For orientation: A change in cytosolic calcium serves as a functional read-out for many receptors and channels.

The structures appear in SMILES notation. pIC50: −log10 of the molar value.

By pIC50 is commonly meant −log10 of the IC50, conventionally taken in molar units. On to `COc1cnc2c(-c3cc4ccccc4o3)nc(C)cc2c1` [Example 134, 8-(benzofuran-2-yl)-3-methoxy-6-methyl-1,7-naphthyridine\], for which the pIC50 was 6.92. In the case of `Cc1cc(-c2cc3ccccc3o2)c2ncc(-c3ccoc3)nc2c1` [Example 135, 5-(benzofuran-2-yl)-2-(furan-3-yl)-7-methylquinoxaline], the pIC50 was 5.66. Consider `Cc1cc(-c2nc3c(s2)CCC3)c2ncc(OC(F)F)nc2c1` [Example 136, 2-(2-(difluoromethoxy)-7-methylquinoxalin-5-yl)-5,6-dihydro-4H-cyclopenta[d]thiazole], for which the pIC50 is 7.54. Take `COc1cnc2c(-c3nc4c(s3)CCCCC4)cc(C)cc2n1` [Example 137, 2-(2-methoxy-7-methylquinoxalin-5-yl)-5,6,7,8-tetrahydro-4H-cyclohepta[d]thiazole]: the pIC50 was 7.54. In the case of `COc1cnc2c(-c3nc4c(s3)C(O)CCC4)cc(C)cc2n1` (centres unmarked) [Example 138, 2-(2-methoxy-7-methylquinoxalin-5-yl)-4,5,6,7-tetrahydrobenzo[d]thiazol-7-ol], the pIC50 was 7.48. With `COc1cnc2c(-c3nc4c(s3)C(OC)CCC4)cc(C)cc2n1` (centres unmarked) [Example 139, 7-methoxy-2-(2-methoxy-7-methylquinoxalin-5-yl)-4,5,6,7-tetrahydrobenzo[d]thiazole], the pIC50 was 8.41. `COc1cnc2c(-c3nc4c(s3)CC(OC)CC4)cc(C)cc2n1` (centres unmarked) [Example 140, 6-methoxy-2-(2-methoxy-7-methylquinoxalin-5-yl)-4,5,6,7-tetrahydrobenzo[d]thiazole]: the pIC50 is 7.68. As for `COc1cnc2c(-c3nc4c(s3)CC(C)(C)CC4)cc(C)cc2n1` [Example 141, 2-(2-methoxy-7-methylquinoxalin-5-yl)-6,6-dimethyl-4,5,6,7-tetrahydrobenzo[d]thiazole], the negative-log IC50 (pIC50) is 7.10. The value for `COc1cnc2c(-c3nc4c(s3)CC(CCO)C4)cc(C)cc2n1` (centres unmarked) [Example 142, 2-(2-(2-methoxy-7-methylquinoxalin-5-yl)-5,6-dihydro-4H-cyclopenta[d]thiazol-5-yl) ethanol] was 8.25; that for `COCc1cnc2c(-c3nc4c(s3)C(O)CCC4)cc(C)cc2n1` (centres unmarked) [Example 143, 2-(2-(methoxymethyl)-7-methylquinoxalin-5-yl)-4,5,6,7-tetrahydrobenzo[d]thiazol-7-ol] was 7.44; that for `COCc1cnc2c(-c3nc4c(s3)CCCC4)cc(C)cc2n1` [Example 144, 2-(2-(methoxymethyl)-7-methylquinoxalin-5-yl)-4,5,6,7-tetrahydrobenzo[d]thiazole] was 9.52. In the case of `COCc1cnc2c(-c3nc4c(s3)C(O)C(C)(C)CC4)cc(C)cc2n1` (centres unmarked) [Example 145, 2-(2-(methoxymethyl)-7-methylquinoxalin-5-yl)-6,6-dimethyl-4,5,6,7-tetrahydrobenzo[d] thiazol-7-ol], the pIC50 was 8.35.

With `COCc1cnc2c(-c3nc4cnccc4s3)cc(C)cc2n1` [Example 146, 2-(2-(methoxymethyl)-7-methylquinoxalin-5-yl)thiazolo[4,5-c]pyridine], the pIC50 was 8.15.

Regarding `COCc1cnc2c(-c3nc4ccc(OC)nc4s3)cc(C)cc2n1` [Example 147], the negative-log IC50 (pIC50) is 8.77. The value for `COCc1cnc2c(-c3nc4cccnc4s3)cc(C)cc2n1` [Example 148, 2-(2-(methoxymethyl)-7-methylquinoxalin-5-yl)thiazolo[5,4-b]pyridine] was 7.32; that for `COCc1cnc2c(-c3nc4c(Cl)cncc4s3)cc(C)cc2n1` [Example 149, 7-chloro-2-(2-(methoxymethyl)-7-methylquinoxalin-5-yl)thiazolo[5,4-c]pyridine] was 8.38; that for `COc1cnc2c(-c3nc4ccc(OC)nc4s3)cc(C)cc2n1` [Example 150, 5-methoxy-2-(2-methoxy-7-methylquinoxalin-5-yl)thiazolo[5,4-b]pyridine] was 7.03. The value for `COc1cnc2c(-c3nc4c(Cl)cncc4s3)cc(C)cc2n1` [Example 151, 7-chloro-2-(2-methoxy-7-methylquinoxalin-5-yl)thiazolo[5,4-c]pyridine] was 5.70; that for `COC(=O)c1cc(OC)cc2sc(-c3cc(C)cc4nc(OC)cnc34)nc12` [Example 152, methyl 6-methoxy-2-(2-methoxy-7-methylquinoxalin-5-yl)benzo[d]thiazole-4-carboxylate] was 7.42. For `COCc1cnc2c(-c3nc4c(C)cc(OC)cc4s3)nc(C)cc2c1` [Example 153, 6-methoxy-2-(3-(methoxymethyl)-6-methyl-1,7-naphthyridin-8-yl)-4-methylbenzo[d]thiazole], the pIC50 was 7.80.

For the compound `COc1cc(CO)c2nc(-c3cc(C)cc4nc(OC)cnc34)sc2c1` [Example 154, (6-methoxy-2-(2-methoxy-7-methylquinoxalin-5-yl)benzo[d]thiazol-4-yl)methanol], the pIC50 was 8.42. Turning to `COCc1cnc2c(-c3nc4c(CO)cc(OC)cc4s3)cc(C)cc2n1` [Example 155, (6-methoxy-2-(2-(methoxymethyl)-7-methylquinoxalin-5-yl)benzo[d]thiazol-4-yl) methanol], the pIC50 was 9.10. As to `COCc1cnc2c(-c3nc4c(C(C)O)cc(OC)cc4s3)cc(C)cc2n1` (centres unmarked) [Example 156, 1-(6-methoxy-2-(2-(methoxymethyl)-7-methylquinoxalin-5-yl)benzo[d]thiazol-4-yl) ethanol], the pIC50 was 8.85.

As for `COCc1cnc2c(-c3nc4c(C(C)(C)O)cc(OC)cc4s3)cc(C)cc2n1` [Example 157, 2-(6-methoxy-2-(2-(methoxymethyl)-7-methylquinoxalin-5-yl)benzo[d]thiazol-4-yl) propan-2-ol], the pIC50 was 7.51. For `COCc1cnc2c(-c3nc4c(C(O)C5CC5)cc(OC)cc4s3)cc(C)cc2n1` (centres unmarked) [Example 158, Cyclopropyl(6-methoxy-2-(2-(methoxymethyl)-7-methylquinoxalin-5-yl)benzo[d]thiazol-4-yl)methanol], the pIC50 is 9.15.

Turning to `COCc1cnc2c(-c3nc4c(CN(C)C)cc(OC)cc4s3)cc(C)cc2n1` [Example 159, 1-(6-methoxy-2-(2-(methoxymethyl)-7-methylquinoxalin-5-yl)benzo[d]thiazol-4-yl)-N,N-dimethylmethanamine], the pIC50 was 7.60. Consider `COc1cc(C(O)C2CC2)c2nc(-c3cc(C)cc4nc(OC)cnc34)sc2c1` (centres unmarked) [Example 160, Cyclopropyl(6-methoxy-2-(2-methoxy-7-methylquinoxalin-5-yl)benzo[d]thiazol-4-yl) methanol], for which the negative logarithm of the IC50 (pIC50) was 8.92. Turning to `COCc1cnc2c(-c3nc4c(C(O)c5ccccc5)cc(OC)cc4s3)cc(C)cc2n1` (centres unmarked) [Example 161, (6-methoxy-2-(2-(methoxymethyl)-7-methylquinoxalin-5-yl)benzo[d]thiazol-4-yl) (phenyl)methanol], the pIC50 is 9.15. The value for `COCc1cnc2c(-c3nc4c(C(=O)O)cc(OC)cc4s3)cc(C)cc2n1` [Example 162, 6-methoxy-2-(2-(methoxymethyl)-7-methylquinoxalin-5-yl)benzo[d]thiazole-4-carboxylic acid] was 6.57; that for `COCc1cnc2c(-c3nc4c(C(O)C5CCCCC5)cc(OC)cc4s3)cc(C)cc2n1` (centres unmarked) [Example 165, Cyclohexyl(6-methoxy-2-(2-(methoxymethyl)-7-methylquinoxalin-5-yl)benzo[d]thiazol-4-yl)methanol] was 8.92. Take `COCc1cnc2c(-c3nc4c(C(O)C5CCC5)cc(OC)cc4s3)cc(C)cc2n1` (centres unmarked) [Example 166, Cyclobutyl(6-methoxy-2-(2-(methoxymethyl)-7-methylquinoxalin-5-yl)benzo[d]thiazol-4-yl)methanol]: the pIC50 was 8.55. On to `COCc1cnc2c(-c3nc4c(C(O)c5ccccn5)cc(OC)cc4s3)cc(C)cc2n1` (centres unmarked) [Example 167, (6-methoxy-2-(2-(methoxymethyl)-7-methylquinoxalin-5-yl)benzo[d]thiazol-4-yl)(pyridin-2-yl)methanol], for which the pIC50 was 8.35.

For the compound `COCc1cnc2c(-c3nc4c(C(O)c5cccnc5)cc(OC)cc4s3)cc(C)cc2n1` (centres unmarked) [Example 168, (6-methoxy-2-(2-(methoxymethyl)-7-methylquinoxalin-5-yl)benzo[d]thiazol-4-yl) (pyridin-3-yl)methanol], the negative-log IC50 (pIC50) is 8.70.

With `COCc1cnc2c(-c3nc4c(C(O)C(F)(F)F)cc(OC)cc4s3)cc(C)cc2n1` (centres unmarked) [Example 171, 2,2,2-trifluoro-1-(6-methoxy-2-(2-(methoxymethyl)-7-methylquinoxalin-5-yl)benzo[d]thiazol-4-yl)ethanol], the pIC50 is 9.22. The value for `COCc1cnc2c(-c3nc4c(C(O)c5ccncc5)cc(OC)cc4s3)cc(C)cc2n1` (centres unmarked) [Example 172, (6-methoxy-2-(2-(methoxymethyl)-7-methylquinoxalin-5-yl)benzo[d]thiazol-4-yl)(pyridin-4-yl)methanol] was 8.77; that for `COCc1cnc2c(-c3nc4c(C(O)CC(F)(F)F)cc(OC)cc4s3)cc(C)cc2n1` (centres unmarked) [Example 173, 3,3,3-trifluoro-1-(6-methoxy-2-(2-(methoxymethyl)-7-methylquinoxalin-5-yl)benzo[d]thiazol-4-yl)propan-1-ol] was 8.57; that for `COc1cc(C(O)C(F)(F)F)c2nc(-c3cc(C)cc4nc(OC)cnc34)sc2c1` (centres unmarked) [Example 174, 2,2,2-trifluoro-1-(6-methoxy-2-(2-methoxy-7-methylquinoxalin-5-yl)benzo[d]thiazol-4-yl)ethanol] was 8.52. The value for `COc1cnc2c(-c3cc4ccccc4o3)cc(C)cc2n1` [Example 175, 5-(benzofuran-2-yl)-2-methoxy-7-methylquinoxaline] was 7.64.
